In PMC11083148, “Structure–Activity Relationship Studies on Highly Functionalized Pyrazole Hydrazones and Amides as Antiproliferative and Antioxidant Agents” (International Journal of Molecular Sciences, 2024):

Key:
NCI-H460 = experiment: NCI screening, Non-Small Cell Lung Cancer; type: cell-based; conditions: 10 µM
Method: (§1) In addition, 11a and 17 (representative compounds of the acylhydrazone and amide series) were selected by the National Cancer Institute (NCI, Germantown, MD, USA) and tested at a fixed concentration of 10 µM against a panel of fifty-nine different cancer cell lines, including highly metastatic tumors (Table 2).

NCI-H522 = experiment: NCI screening, Non-Small Cell Lung Cancer; type: cell-based; conditions: 10 µM
Method: as §1

HCT-116 = experiment: NCI screening, Colon Cancer; type: cell-based; conditions: HCT-116, Colon Cancer; 10 µM
Method: as §1

HCT-15 = experiment: NCI screening, Colon Cancer; type: cell-based; conditions: HCT-15, Colon Cancer; 10 µM
Method: as §1

HT29 = experiment: NCI screening, Colon Cancer; type: cell-based; conditions: 10 µM
Method: as §1

SW-620 = experiment: NCI screening, Colon Cancer; type: cell-based; conditions: SW-620, Colon Cancer; 10 µM
Method: as §1

HS 578T = experiment: NCI screening, Breast Cancer; type: cell-based; conditions: 10 µM
Method: as §1

MCF7 = experiment: NCI screening, Breast Cancer; type: cell-based; conditions: 10 µM
Method: as §1

MDA-MB-468 = experiment: NCI screening, Breast Cancer; type: cell-based; conditions: MDA-MB-468, Breast Cancer; 10 µM; negative values indicate lethality
Method: as §1

[1] = DPPH radical-scavenging activity; type: physicochemical; parameters: AA (%), percentage of antioxidant activity: concentration or dose not given beside the values; conditions: mean ± SD, n = 2
Method: The antioxidant activity of the representative compounds of the two series (namely, acylhydrazones 10b, 11a, 11d, 12d, 13d, and amides 14, 22) was measured in vitro using the 2,2-diphenyl-1-picrylhydrazyl (DPPH) assay. The results were calculated as Trolox equivalent and expressed as a percentage of antioxidant activity (AA) (Table 3). […] Derivatives 10b and 12d were endowed with the highest antioxidant activity, thus highlighting the relevance of both pyrazole N1 and acylhydrazone substituents on compounds’ radical scavenging properties.
Compounds 10b, 11a, 11d, 12d, 13d, 14, and 22 (ca. 3 mg) were dissolved in DMSO (1 mL), and then 100 µL of this solution was mixed with 3.9 mL of DPPH methanol solution (65 µM). Absorbance was measured at 517 nm after reacting for 30 min in the dark. The linear calibration curve was obtained using Trolox standards (ranging between 20 and 200 mg/L, R^2 = 0.9955). The result was calculated as Trolox equivalent in mg/L, and the percentage of antioxidant activity (AA%) was calculated from the ratio of decreasing absorbance of sample solution (A0 − As) to absorbance of blank DPPH solution (A0), as expressed in Equation (1). (1) AA%=A0−As/A0×100
All analyses were carried out in duplicate (n = 2), and values are given as means ± standard deviation (SD).

Row | SMILES | Growth Percentage (%) (NCI-H460) | Growth Percentage (%) (NCI-H522) | Growth Percentage (%) (HCT-116) | Growth Percentage (%) (HCT-15) | Growth Percentage (%) (HT29) | Growth Percentage (%) (SW-620) | Growth Percentage (%) (HS 578T) | Growth Percentage (%) (MCF7) | Growth Percentage (%) (MDA-MB-468) | AA (%), percentage of antioxidant activity [1] [%] | DPPH (%) [1] [%]
1 | CCOC(=O)c1c(NC(=O)C2CC2)nn(C)c1Nc1ccccc1 [compound 17, Ethyl 3-(cyclopropanecarboxamido)-1-methyl-5-(phenylamino)-1H-pyrazole-4-carboxylate] | 101.02 | 97.23 | 104.12 | 96.95 | 99.47 | 94.82 | 96.86 | 92.37 | 102.11 | – | –
2 | COc1ccc(/C=N/NC(=O)c2c(N)nn(C)c2Nc2ccccc2)cc1 [11a, (E)-3-amino-N′-(4-methoxybenzylidene)-1-methyl-5-(phenylamino)-1H-pyrazole-4-carbohydrazide] | – | – | – | – | – | – | – | – | – | 25.56 ± 2.44 | 74.44 ± 2.44
